Test results taken from patent US6245734A (priority 1997, dated 2001).
≈ marks a conversion by molar mass, not a printed value. Like-named read-outs stand apart in the source and are kept apart here.

Columns and labels:
[1] = test system: AsPC-1 cells; assay: Apoptosis-inducing activity on human pancreatic cancer cell AsPC-1 (Trypan Blue); assay type: cell-based; conditions: for IC50: Homo sapiens, read-out: IC50 (concentration at which cell death by apoptosis is induced at 50% of total AsPC-1 cells); for time after drug treatment in which apoptosis was induced on AsPC-1 cells: after the drug treatment
Description: A cell suspension containing the AsPC-1 cells suspended in an RPMI 1640 culture medium containing 10% FBS was prepared, and 500 μl-portion each of the cell suspension was placed in a 24-well plastic plate in a proportion of 1×10^5 cells/well. The cell suspension was incubated at 37° C. under 5% CO2 for 1 day. The AsPC-1 cells adhered onto the bottom surface of each well. Subsequently, polyoxypeptin or deoxypolyoxypeptin was added to the liquid culture medium present in each well so as to give the substance under test at a concentration of 3, 100 or 300 μg/ml. The cells were incubated for 24 hours.
Immediately after the incubation for 24 hours, the supernatant liquid (500 μl) of the culture medium remaining in each well was removed from each well of said plastic plate and discarded. Then, the plastic plate was washed twice with a PBS buffer solution (each 300 μl), and the washings were discharged. Thereafter, a trypsin-EDTA buffer solution (200 μl) was added to said plastic plate, and the incubation was effected at 37° C. under CO2 -free condition so as to peel the cells off from the plate. The cells so peeled were transferred to an Eppendorf tube. The Eppendorf tube was centrifuged (2400 rpm, 10 minutes) to deposit the cells down, and the super-natant was removed and discarded. A fresh amount of the liquid culture medium was added to the cells. An 80 μl-portion of the resulting cell suspension as formed in said tube was taken into another Eppendorf tube, to which were then added 20 μl of Trypan Blue staining solution (containing 4 mg/ml of Trypan Blue and 9 mg/ml of NaCl). The cell suspension was taken out from the resulting mixture by a pipette, and the cell suspension so pipetted was placed on a hemocytometer (made by Elma Co.). The cell sample was observed under a microscope of 100 magnifications. The number of the dead cells as blue-colored amongst the cells under observation, and the total number of whole cells under observation were counted.
The survival rate (%) of the cells was calculated by an equation of 100-[(number of dead cells.div. total number of tested cells)×100].

[2] = test system: AsPC-1 cells; assay: Activity inhibitory to the proliferation of human pancreatic cancer cell AsPC-1 (MTT assay); assay type: cell-based; conditions: ASPC1, 48 h, read-out: IC50 (concentration at which proliferation of AsPC-1 cells was inhibited by 50%)
Description: A cell suspension of AsPC-1 cells suspended in an RPMI 1640 culture medium containing 10% FBS was prepared, and 100 μl-portion each of said cell suspension was placed in a 96-well plastic plate in a proportion of 3×10^3 cells/well. Each plate was then incubated at 37° C. under a 5% CO2 for 1 day. Subsequently, polyoxypeptin or deoxypolyoxypeptin was added to the liquid culture medium present in each well at a concentration of 1, 3, 10, 30 or 100 ng/ml of said compound. Then the incubation of the cells was effected for 2 days. Then, the number of cells was counted by MTT assay method.

[3] = test system: Human T cell leukemia Jurkat; assay: Cytocidal activity, Trypan Blue; assay type: cell-based; conditions: read-out: IC50 (concentration required to kill 50% of cells)
Description: (§1) Various cancer cells as shown in Table 1 below were incubated for 24 hours on such culture medium as shown in the table which contained polyoxypeptin or deoxypolyoxypeptin added at various concentrations. After staining with Trypan Blue, the number.of the dead cells was counted, and the concentration of polyoxypeptin or deoxypolyoxypeptin required to kill 50% of the total number of cells of the cancer cells under test, namely the value of IC50, was calculated therefrom.

[4] = test system: Human bibrosarcoma HT1080; assay: Cytocidal activity, Trypan Blue; assay type: cell-based; conditions: read-out: IC50 (concentration required to kill 50% of cells)
Description: as §1

[5] = test system: Human chronic promyeloleukemia K562; assay: Cytocidal activity, Trypan Blue; assay type: cell-based; conditions: read-out: IC50 (concentration required to kill 50% of cells)
Description: as §1

[6] = test system: Human epithelioma A431; assay: Cytocidal activity, Trypan Blue; assay type: cell-based; conditions: read-out: IC50 (concentration required to kill 50% of cells)
Description: as §1

[7] = test system: Human pancreatic adenocarcinoma cells AsPC-1; assay: Cytocidal activity, Trypan Blue; assay type: cell-based; conditions: read-out: IC50 (concentration required to kill 50% of cells)
Description: as §1

[8] = test system: Human pancreatic adenocarcinoma cells BxPC-3; assay: Cytocidal activity, Trypan Blue; assay type: cell-based; conditions: read-out: IC50 (concentration required to kill 50% of cells)
Description: as §1

[9] = test system: Human pancreatic adenocarcinoma cells PSN-1; assay: Cytocidal activity, Trypan Blue; assay type: cell-based; conditions: read-out: IC50 (concentration required to kill 50% of cells)
Description: as §1

[10] = test system: Human pancreatic adenocarcinoma cells Panc-1; assay: Cytocidal activity, Trypan Blue; assay type: cell-based; conditions: read-out: IC50 (concentration required to kill 50% of cells)
Description: as §1

[11] = test system: Human promyeloleukemia HL-60; assay: Cytocidal activity, Trypan Blue; assay type: cell-based; conditions: read-out: IC50 (concentration required to kill 50% of cells)
Description: as §1

[12] = test system: Human uterus body cancer HHUA; assay: Cytocidal activity, Trypan Blue; assay type: cell-based; conditions: read-out: IC50 (concentration required to kill 50% of cells)
Description: as §1

[13] = test system: Mouse fibroblast cell A4 (cerbB2-NIH3T3); assay: Cytocidal activity, Trypan Blue; assay type: cell-based; conditions: read-out: IC50 (concentration required to kill 50% of cells)
Description: as §1

[14] = test system: Mouse fibroblast cell K-ras-NIH3T3; assay: Cytocidal activity, Trypan Blue; assay type: cell-based; conditions: read-out: IC50 (concentration required to kill 50% of cells)
Description: as §1

[15] = test system: Mouse fibroblast cell NIH3T3; assay: Cytocidal activity, Trypan Blue; assay type: cell-based; conditions: read-out: IC50 (concentration required to kill 50% of cells)
Description: as §1

[16] = test system: Mouse fibroblast cell RSV-NIH3T3 (src-transformed NIH3T3); assay: Cytocidal activity, Trypan Blue; assay type: cell-based; conditions: read-out: IC50 (concentration required to kill 50% of cells)
Description: as §1

[17] = test system: Rat fibroblast cell K-ras-NRK; assay: Cytocidal activity, Trypan Blue; assay type: cell-based; conditions: read-out: IC50 (concentration required to kill 50% of cells)
Description: as §1

[18] = test system: Rat fibroblast cell NRK; assay: Cytocidal activity, Trypan Blue; assay type: cell-based; conditions: read-out: IC50 (concentration required to kill 50% of cells)
Description: as §1

[19] = test system: Escherichia coli; assay: Antibacterial activity, serial dilution on Muller-Hinton agar; assay type: cell-based; conditions: gram-negative bacteria such as Escherichia coli
Description: Antibacterial spectra of polyoxypeptin and deoxypoly-oxypeptin against various microorganisms were determined on Muller-Hinton agar medium by a serial dilution method on the basis of the standard method of Japan Society of Chemotherapy.

[20] = test system: mice; assay: Acute toxicity in mice, single intravenous injection; assay type: in vivo, mouse; conditions: administered once by intravenous injection
[21] = test system: other human solid cancer cells; assay: Apoptosis induction on other human solid cancer cells; assay type: cell-based
[22] = Solubility; conditions: for Solubility in organic solvents: methanol, ethanol, aqueous ethanol, chloroform, ethyl acetate, acetone, (n-)butanol, acetonitrile, toluene, dimethylsulfoxide
[23] = test system: BxPC-3 cell; conditions: 3 μg/ml adriamycin, from start of treatment; cited from earlier work
[24] = test system: AsPC-1 cell; conditions: 30 μg/ml adriamycin; cited from earlier work
[25] = test system: leukemia cells and experimental cancer cells artificially generated by carcinogen virus and the like; conditions: cited from earlier work
[26] = test system: spontaneously generated human solid cancer cells; conditions: cited from earlier work
[27] = test system: incubated cancer cells; conditions: cited from earlier work

CCC(C)CC1CCC(O)(C(C)(O)C(=O)NC2C(=O)N3NCCCC3C(=O)N(O)C(C)C(=O)N3NCC(O)CC3C(=O)N3CCC(C)(O)C3C(=O)N(O)C(C(C)C)C(=O)OC2C(C)C)OC1CC (centres unmarked) [polyoxypeptin]
IC50 ([1]; ASPC1, 24 h): 0.08 µg/mL (≈ 0.0825 µM) | time after drug treatment in which apoptosis was induced on AsPC-1 cells [1]: approximately 24 hours | IC50 [2]: 0.015 µg/mL (≈ 0.0155 µM) | IC50 ([3]; 24 h): 0.05 µg/mL (≈ 0.0516 µM) | IC50 ([4]; HT-1080, 24 h): 0.02 µg/mL (≈ 0.0206 µM) | IC50 ([5]; K562, 24 h): 0.02 µg/mL (≈ 0.0206 µM) | IC50 ([6]; A-431, 24 h): 0.03 µg/mL (≈ 0.031 µM) | IC50 ([7]; ASPC1, 24 h): 0.08 µg/mL (≈ 0.0825 µM) | IC50 ([8]; BXPC-3, 24 h): 0.03 µg/mL (≈ 0.031 µM) | IC50 ([9]; PSN1, 24 h): 0.01 µg/mL (≈ 0.0103 µM) | IC50 ([10]; PANC-1, 24 h): 0.05 µg/mL (≈ 0.0516 µM) | IC50 ([11]; HL-60, 24 h): 0.04 µg/mL (≈ 0.0413 µM) | IC50 ([12]; 24 h): 0.05 µg/mL (≈ 0.0516 µM) | IC50 ([13]; 24 h): 0.06 µg/mL (≈ 0.0619 µM) | IC50 ([14]; 24 h): 0.1 µg/mL (≈ 0.103 µM) | IC50 ([15]; NIH3T3, 24 h): 0.05 µg/mL (≈ 0.0516 µM) | IC50 ([16]; NIH3T3, 24 h): 0.06 µg/mL (≈ 0.0619 µM) | IC50 ([17]; 24 h): 0.05 µg/mL (≈ 0.0516 µM) | IC50 ([18]; 24 h): 0.18 µg/mL (≈ 0.186 µM) | antibacterial activity against gram-negative bacteria [19]: did not exhibit any antibacterial activity | LD50 [20]: 67.5 μg/mouse | apoptosis-inducing activity on other human solid cancer cells [21]: have also an activity of inducing apoptosis | Solubility in organic solvents [22]: Soluble | Solubility in water [22]: hardly soluble

CCC(C)CC1CCC(O)(C(C)(O)C(=O)NC2C(=O)N3NCCCC3C(=O)N(O)C(C)C(=O)N3NCCCC3C(=O)N3CCC(C)(O)C3C(=O)N(O)C(C(C)C)C(=O)OC2C(C)C)OC1CC (centres unmarked) [deoxypolyoxypeptin]
IC50 ([1]; ASPC1, 24 hours incubation, RPMI 1640 with 10% FBS): 0.08 µg/mL (≈ 0.0839 µM) | time after drug treatment in which apoptosis was induced on AsPC-1 cells [1]: approximately 24 hours | IC50 ([2]; 2 days incubation, MTT, RPMI 1640 with 10% FBS): 0.015 µg/mL (≈ 0.0157 µM) | IC50 ([3]; 24 hours, medium B): 0.05 µg/mL (≈ 0.0525 µM) | IC50 ([4]; HT-1080, HT1080, 24 hours, medium D): 0.02 µg/mL (≈ 0.021 µM) | IC50 ([5]; K562, 24 hours, medium A): 0.02 µg/mL (≈ 0.021 µM) | IC50 ([6]; A-431, A431, 24 hours, medium C): 0.03 µg/mL (≈ 0.0315 µM) | IC50 ([7]; ASPC1, AsPC-1, 24 hours, medium A): 0.08 µg/mL (≈ 0.0839 µM) | IC50 ([8]; BxPC-3, 24 hours, medium A): 0.03 µg/mL (≈ 0.0315 µM) | IC50 ([9]; PSN1, PSN-1, 24 hours, medium A): 0.01 µg/mL (≈ 0.0105 µM) | IC50 ([10]; Panc-1, 24 hours, medium A): 0.05 µg/mL (≈ 0.0525 µM) | IC50 ([11]; HL-60, 24 hours, medium A): 0.04 µg/mL (≈ 0.042 µM) | IC50 ([12]; HHUA, 24 hours, medium D): 0.05 µg/mL (≈ 0.0525 µM) | IC50 ([13]; A4 (cerbB2-NIH3T3), 24 hours, medium A): 0.06 µg/mL (≈ 0.0629 µM) | IC50 ([14]; K-ras-NIH3T3, 24 hours, medium A): 0.1 µg/mL (≈ 0.105 µM) | IC50 ([15]; NIH3T3, 24 hours, medium A): 0.05 µg/mL (≈ 0.0525 µM) | IC50 ([16]; RSV-NIH3T3 (src-transformed NIH3T3), 24 hours, medium A): 0.06 µg/mL (≈ 0.0629 µM) | IC50 ([17]; K-ras-NRK, 24 hours, medium C): 0.05 µg/mL (≈ 0.0525 µM) | IC50 ([18]; NRK, 24 hours, medium C): 0.18 µg/mL (≈ 0.189 µM) | antibacterial activity against gram-negative bacteria [19]: did not exhibit any antibacterial activity | LD50 [20]: 125 μg/mouse | apoptosis-inducing activity on other human solid cancer cells [21]: have also an activity of inducing apoptosis | Solubility in organic solvents [22]: Soluble | Solubility in water [22]: hardly soluble

COc1cccc2c1C(=O)c1c(O)c3c(c(O)c1C2=O)C[C@@](O)(C(=O)CO)C[C@@H]3O[C@H]1C[C@H](N)[C@H](O)[C@H](C)O1 [adriamycin]
time within which apoptosis is induced on BxPC-3 cell [23]: ≤ 24 h | apoptosis induction on AsPC-1 cell [24]: does not induce apoptosis | apoptosis induction on leukemia cells and experimental cancer cells [25]: can have an activity of inducing the apoptosis | apoptosis induction on many spontaneously generated human solid cancer cells [26]: does not induce apoptosis | apoptosis induction on some of incubated cancer cells [27]: have the activities of inducing the apoptosis

N.N.[Cl][Pt][Cl] [cisplatin]
apoptosis induction on leukemia cells and experimental cancer cells [25]: can have an activity of inducing the apoptosis | apoptosis induction on many spontaneously generated human solid cancer cells [26]: does not induce apoptosis | apoptosis induction on some of incubated cancer cells [27]: have the activities of inducing the apoptosis
